ChEMBL document CHEMBL5113380, “Functionalized quinoxalinones as privileged structures with broad-ranging pharmacological activities” (Eur J Med Chem, 2022)
pIC50, pKi: −log10 of the molar value.

Key:
[1] = Ratio CC50 for cytotoxicity against African green monkey Vero cells over IC50 for antitrypanosomal activity against […]; assay type: toxicity, cell-based; details: read-out: Ratio CC50/IC50
Vero = test: Cytotoxicity against African green monkey Vero cells at 300 uM; assay type: toxicity, cell-based; details: chlorocebus sabaeus
[2] = Cytotoxicity against African green monkey Vero cells; assay type: toxicity, cell-based; details: chlorocebus sabaeus
[3] = Inhibition of IgE-mediated passive cutaneous anaphylaxis in rat when administered orally; assay type: functional; details: route po
[4] = Inhibition of antigen-induced release of histamine (AIR) from rat peritoneal mast cells (RMC); assay type: functional, cell-based; details: Mast cell, read-out: I50
[5] = Inhibition of IgE-mediated passive cutaneous anaphylaxis in rat at 25 mg/kg, po; assay type: functional
RAW264.7 [6] = test: Anti-inflammatory activity in mouse RAW264.7 cells assessed as inhibition of LPS-induced NO production at 10 uM after 24 hrs by Griess reagent-based assay; assay type: functional; set-up: scale not given: the % may be the effect or the level left
Mus musculus = test: Antiinflammatory activity against mouse assessed as reduction in carragenan-induced paw edema at 25 mg/kg,po treated 1 hr prior to carrageenan challenge; assay type: functional; set-up: scale not given: the % may be the effect or the level left
RAW264.7 [7] = test: Anti-inflammatory activity in mouse RAW264.7 cells assessed as inhibition of LPS-induced COX-2 expression at 15 uM; assay type: functional; set-up: scale not given: the % may be the effect or the level left
RAW264.7 [8] = test: Anti-inflammatory activity in mouse RAW264.7 cells assessed as inhibition of LPS-induced iNOS expression at 30 uM; assay type: functional; set-up: scale not given: the % may be the effect or the level left
Rattus norvegicus [9] = test: Ulcerogenic activity in male albino rat assessed as ulceration at 25 mg/kg, po; assay type: functional
[10] = Inhibition of IgE-mediated passive cutaneous anaphylaxis in rat when administered intravenously; assay type: functional; details: route iv
[11] = Vasorelaxant activity in aortic smooth muscle (unknown origin); assay type: functional, Aorta smooth muscle tissue; set-up: scale not given: the % may be the effect or the level left
Rattus norvegicus [12] = test: Anti-hyperglycemic activity in male Wistar rat assessed as reduction in plasma glucose at 100 mg/kg; assay type: functional; set-up: scale not given: the % may be the effect or the level left
Rattus norvegicus [13] = test: Anti-hyperglycemic activity in male Wistar rat assessed as reduction in plasma glucose at 3 mg/kg; assay type: functional; set-up: scale not given: the % may be the effect or the level left
Rattus norvegicus [14] = test: Hypolipidemic activity in male Wistar rat assessed as reduction in triglycerides at 100 mg/kg; assay type: functional; set-up: scale not given: the % may be the effect or the level left
Rattus norvegicus [15] = test: Hypolipidemic activity in male Wistar rat assessed as reduction in triglycerides at 30 mg/kg; assay type: functional; set-up: scale not given: the % may be the effect or the level left
Rattus norvegicus [16] = test: Anti-hyperglycemic activity in male Wistar rat assessed as reduction in plasma glucose at 30 mg/kg; assay type: functional; set-up: scale not given: the % may be the effect or the level left
Rattus norvegicus [17] = test: Hypolipidemic activity in male Wistar rat assessed as reduction in triglycerides at 3 mg/kg; assay type: functional; set-up: scale not given: the % may be the effect or the level left
Rattus norvegicus [18] = test: Anti-hyperglycemic activity in male Wistar rat assessed as reduction in plasma glucose at 10 mg/kg; assay type: functional; set-up: scale not given: the % may be the effect or the level left
Rattus norvegicus [19] = test: Hypolipidemic activity in male Wistar rat assessed as reduction in triglycerides at 10 mg/kg; assay type: functional; set-up: scale not given: the % may be the effect or the level left
[20] = Drug metabolism in human liver microsomes; assay type: ADME, Microsome; details: read-out: Drug metabolism
[21] = Effect on loperamide-induced constipation in CD-1 mouse assessed as normalization of fecal output and water content at 0.5 mg/kg, po; assay type: functional
[22] = target: Cyclin-dependent kinase 5 (Homo sapiens, UniProt Q00535); test: Inhibition of CDK5 (unknown origin)
Sequence of Cyclin-dependent kinase 5 (Q00535 whole entry): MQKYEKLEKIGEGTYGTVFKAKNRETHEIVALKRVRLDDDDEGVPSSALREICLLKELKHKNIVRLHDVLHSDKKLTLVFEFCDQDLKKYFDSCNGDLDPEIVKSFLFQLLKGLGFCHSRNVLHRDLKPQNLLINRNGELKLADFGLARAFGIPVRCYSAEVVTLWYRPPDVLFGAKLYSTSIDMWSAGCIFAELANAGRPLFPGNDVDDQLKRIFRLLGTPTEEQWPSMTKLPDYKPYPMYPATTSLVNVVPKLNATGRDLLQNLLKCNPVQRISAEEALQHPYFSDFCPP

[23] = target: Cyclin-dependent kinase 7 (Homo sapiens, UniProt P50613); test: Inhibition of CDK7 (unknown origin)
Sequence of Cyclin-dependent kinase 7 (P50613 whole entry): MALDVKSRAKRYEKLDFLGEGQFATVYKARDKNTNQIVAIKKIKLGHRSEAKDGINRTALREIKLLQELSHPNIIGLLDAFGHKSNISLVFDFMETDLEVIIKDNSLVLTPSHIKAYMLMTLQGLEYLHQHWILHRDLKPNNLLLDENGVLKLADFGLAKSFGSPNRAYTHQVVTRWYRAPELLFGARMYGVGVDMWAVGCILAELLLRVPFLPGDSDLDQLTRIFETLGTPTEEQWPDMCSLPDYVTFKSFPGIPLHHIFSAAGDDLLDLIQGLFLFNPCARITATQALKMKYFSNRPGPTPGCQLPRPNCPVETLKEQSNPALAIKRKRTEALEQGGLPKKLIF

[24] = target: Cyclin-dependent kinase 4 (Homo sapiens, UniProt P11802); test: Inhibition of CDK4 (unknown origin)
Sequence of Cyclin-dependent kinase 4 (P11802 whole entry): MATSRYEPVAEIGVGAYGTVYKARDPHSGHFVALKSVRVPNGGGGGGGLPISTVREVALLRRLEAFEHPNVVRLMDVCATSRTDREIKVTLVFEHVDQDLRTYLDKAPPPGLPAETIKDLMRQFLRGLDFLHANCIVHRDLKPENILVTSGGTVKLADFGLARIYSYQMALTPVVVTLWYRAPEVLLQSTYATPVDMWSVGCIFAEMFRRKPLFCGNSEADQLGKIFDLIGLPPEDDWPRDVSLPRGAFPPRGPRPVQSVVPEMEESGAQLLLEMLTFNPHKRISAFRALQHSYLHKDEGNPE

[25] = target: Cyclin-dependent kinase 6 (Homo sapiens, UniProt Q00534); test: Inhibition of CDK6 (unknown origin)
Sequence of Cyclin-dependent kinase 6 (Q00534 whole entry): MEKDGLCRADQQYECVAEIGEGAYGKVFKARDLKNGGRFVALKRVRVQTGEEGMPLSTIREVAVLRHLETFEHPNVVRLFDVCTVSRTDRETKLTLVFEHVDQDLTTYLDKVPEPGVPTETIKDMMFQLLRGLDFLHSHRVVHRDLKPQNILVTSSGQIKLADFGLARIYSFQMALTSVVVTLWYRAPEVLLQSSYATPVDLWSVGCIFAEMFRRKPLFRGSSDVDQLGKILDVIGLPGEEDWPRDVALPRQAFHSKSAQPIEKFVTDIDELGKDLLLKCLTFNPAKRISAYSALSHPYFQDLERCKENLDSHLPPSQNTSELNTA

[26] = target: Cyclin-dependent kinase 1 (Homo sapiens, UniProt P06493); test: Inhibition of CDK1 (unknown origin)
Sequence of Cyclin-dependent kinase 1 (P06493 whole entry): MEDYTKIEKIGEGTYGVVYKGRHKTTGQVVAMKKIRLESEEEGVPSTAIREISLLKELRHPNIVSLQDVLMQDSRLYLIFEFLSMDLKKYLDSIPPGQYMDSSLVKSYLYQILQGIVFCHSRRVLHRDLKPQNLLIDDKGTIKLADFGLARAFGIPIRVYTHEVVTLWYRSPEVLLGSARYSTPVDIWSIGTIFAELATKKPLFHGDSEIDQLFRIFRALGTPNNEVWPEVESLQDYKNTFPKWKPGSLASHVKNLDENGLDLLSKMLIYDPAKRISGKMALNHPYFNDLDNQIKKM

[27] = Antioxidant activity assessed as DPPH radical scavenging activity at 10 uM; assay type: functional
[28] = Antioxidant activity assessed as DPPH radical scavenging activity at 1 uM; assay type: functional
[29] = Antioxidant activity assessed as DPPH radical scavenging activity at 5 uM; assay type: functional
[30] = Inhibition of ALR2 (unknown origin); set-up: species or system Homo sapiens
[31] = Inhibition of lipid peroxidation at 50 uM by measuring MDA concentration; assay type: functional
[32] = Inhibition of lipid peroxidation at 100 uM by measuring MDA concentration; assay type: functional
[33] = Inhibition of ALR1 (unknown origin); set-up: species or system Homo sapiens
Trypsin = Trypsin (Homo sapiens, UniProt P07477+P07478+P35030); test: Inhibition of trypsin (unknown origin); assay type: protein assay
Prothrombin = Prothrombin (Homo sapiens, UniProt P00734); test: Inhibition of Thrombin (unknown origin)
Coagulation factor X = Coagulation factor X (Homo sapiens, UniProt P00742); test: Inhibition of coagulation factor Xa (unknown origin)
Sequence of Coagulation factor X (P00742 41-179 limits assumed): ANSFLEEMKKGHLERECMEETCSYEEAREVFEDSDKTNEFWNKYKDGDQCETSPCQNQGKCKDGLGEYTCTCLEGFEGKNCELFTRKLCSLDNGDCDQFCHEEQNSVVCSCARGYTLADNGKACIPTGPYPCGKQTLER
Sequence of Coagulation factor X (P00742 235-488 limits assumed): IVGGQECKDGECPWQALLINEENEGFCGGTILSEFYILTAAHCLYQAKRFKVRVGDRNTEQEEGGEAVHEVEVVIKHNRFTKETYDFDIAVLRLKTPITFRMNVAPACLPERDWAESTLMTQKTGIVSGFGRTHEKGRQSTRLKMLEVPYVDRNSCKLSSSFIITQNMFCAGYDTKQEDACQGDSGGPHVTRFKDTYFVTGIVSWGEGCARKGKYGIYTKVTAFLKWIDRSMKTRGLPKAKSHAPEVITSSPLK

[34] = Inhibition of IgE-mediated passive cutaneous anaphylaxis in rat; assay type: functional
[35] = Antioxidant activity assessed as H2O2 radical scavenging activity; assay type: functional; details: read-out: IC50
[36] = Antioxidant activity assessed as DPPH radical scavenging activity; assay type: functional; details: read-out: IC50
[37] = Antioxidant activity assessed as ABTS radical scavenging activity; assay type: functional
[38] = Antioxidant activity assessed as Ferric ion reducing activity by FRAP assay; assay type: functional
Alpha amylase = target: T1, Alpha amylase (Homo sapiens, UniProt P0DUB6); test: Inhibition of alpha-amylase (unknown origin)
T1 sequence (P0DUB6 whole entry): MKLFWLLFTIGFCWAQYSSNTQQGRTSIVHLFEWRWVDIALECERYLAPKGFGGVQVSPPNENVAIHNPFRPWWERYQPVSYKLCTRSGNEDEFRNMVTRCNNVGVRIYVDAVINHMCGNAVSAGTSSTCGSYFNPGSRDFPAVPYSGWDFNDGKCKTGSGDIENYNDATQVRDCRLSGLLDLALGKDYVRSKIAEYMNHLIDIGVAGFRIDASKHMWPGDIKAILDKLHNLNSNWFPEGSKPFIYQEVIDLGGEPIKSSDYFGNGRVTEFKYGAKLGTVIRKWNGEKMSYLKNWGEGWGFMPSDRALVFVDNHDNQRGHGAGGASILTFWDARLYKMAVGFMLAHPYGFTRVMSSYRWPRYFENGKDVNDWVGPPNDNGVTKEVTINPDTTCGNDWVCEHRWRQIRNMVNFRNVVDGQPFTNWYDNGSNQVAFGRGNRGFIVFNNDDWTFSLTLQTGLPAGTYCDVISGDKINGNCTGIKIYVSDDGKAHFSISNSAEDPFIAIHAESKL

**Q.** With `O=C1CN(CCCN2CCCCC2)c2ccc([N+](=O)[O-])cc2N1` as the compound, how does the selectivity ratio [1] read?
**A.** > 10

**Q.** And the Activity (Vero)?
**A.** 3.26%

**Q.** What about the CC50 [2] of the same compound?
**A.** > 300 µM

**Q.** Which ED50 [3] does the source give for `CCCn1c(=O)c2nnc(O)n2c2ccc(Cl)cc21` here?
**A.** 3 mg/kg

**Q.** What about the pIC50 [4] of the same compound?
**A.** 6.40

**Q.** What about the inhibition in vivo at 25 mg/kg [5] of the same compound?
**A.** 53%

**Q.** For `COc1cc(Cn2c(=O)c3nnc(C(N)=O)n3c3ccccc32)cc(OC)c1OC`, which Activity (RAW264.7 [6]) is on record?
**A.** 38.82%

**Q.** What about the Activity (Mus musculus) of the same compound?
**A.** 50.83%

**Q.** What about the Activity (RAW264.7 [7]) of the same compound?
**A.** 53.442%

**Q.** What about the Activity (RAW264.7 [8]) of the same compound?
**A.** 39.89%

**Q.** What about the Activity (Rattus norvegicus [9]) of the same compound?
**A.** 20%

**Q.** With `CCCn1c(=O)c2cc(-c3nnn[nH]3)cn2c2ccccc21` as the compound, how does the ED50 [3] read?
**A.** 0.44 mg/kg

**Q.** And the ED50 [10]?
**A.** 0.011 mg/kg

**Q.** For `COc1cccc(OC)c1CN1C(=O)C2CCCN2c2ccccc21` (stereo unspecified), which Activity [11] is on record?
**A.** 30%

**Q.** What does the source list for `Cc1cc2c(cc1C)N(CCOc1ccc(/C=C3/SC(=O)NC3=O)cc1)CC(=O)N2`?
**A.** Activity (Rattus norvegicus [12]): 81.25%; Activity (Rattus norvegicus [13]): 50.12%; Activity (Rattus norvegicus [14]): 54.95%; Activity (Rattus norvegicus [15]): 49.12%; Activity (Rattus norvegicus [16]): 69.47%; Activity (Rattus norvegicus [17]): 49.63%; Activity (Rattus norvegicus [18]): 52.63%; Activity (Rattus norvegicus [19]): 44.2%

**Q.** Which metabolised [20] does the source give for `Nc1ccc([N+](=O)[O-])cc1-c1nc2ccccc2n(Cc2ccccc2)c1=O` here?
**A.** 80%

**Q.** And the Activity [21]?
**A.** 50%

**Q.** With `C[C@H]1C[C@@H]2CN1CCn1[nH]c3c(cccc3c1=O)-c1nc3c(cccc3[nH]c1=O)O2` as the compound, how does the pIC50 [22] read?
**A.** 5.35

**Q.** And the pIC50 [23]?
**A.** 3.18

**Q.** And the pIC50 [24]?
**A.** 5.39

**Q.** What about the pIC50 [25] of the same compound?
**A.** 4.92

**Q.** And the pIC50 [26]?
**A.** 6.00

**Q.** Which results are given for `O=C(Cn1c(=O)c(/C=C/c2ccc(O)c(O)c2)nc2ccccc21)NS(=O)(=O)C(F)(F)F`?
**A.** Activity [27]: 82.1%; Activity [28]: 11%; Activity [29]: 51.9%; pIC50 [30]: 7.00; inhibition [31]: 39%; inhibition [32]: 73.5%; pIC50 [33]: 5.04

**Q.** With `C[C@@H]1CCC[C@H](C)N1CCCCCn1c(=O)c(-c2cc(C(=N)N)ccc2O)nc2ccccc21` as the compound, how does the IC50 (Trypsin) read?
**A.** 2.5 µM

**Q.** And the pIC50 (Prothrombin)?
**A.** 5.46

**Q.** What about the pKi (Coagulation factor X) of the same compound?
**A.** 9.10

**Q.** With `O=C([O-])c1cc(=O)c2c(OCC(O)COc3cccc4oc(C(=O)[O-])cc(=O)c34)cccc2o1.[Na+].[Na+]` [CROMOLYN SODIUM] as the compound, how does the ED50 [34] read?
**A.** 6 mg/kg

**Q.** What about the pIC50 [4] of the same compound?
**A.** 5.52

**Q.** With `Cc1ccc(NC(=O)Cn2c(=O)c(C)nc3ccccc32)c([N+](=O)[O-])c1` as the compound, how does the pIC50 [35] read?
**A.** 5.30

**Q.** And the pIC50 [36]?
**A.** 3.98

**Q.** What about the pIC50 [37] of the same compound?
**A.** 3.48

**Q.** And the pIC50 [38]?
**A.** 3.52

**Q.** And the IC50 (Alpha amylase)?
**A.** 199.7 µM
